Consider three molecules from US10898486B2, “Crystal form of orexin receptor antagonist compound, and preparation method and application thereof” (Shanghai Haiyan Pharmaceutical Technology Co., Ltd., priority 2015, dated 2021).

Values after ≈ are worked out from the molar mass of the structure shown.

In series [1] the target is T1, hOX1R (Homo sapiens, UniProt O43613).
T1 construct: expressed in transfected cells
T1 sequence (O43613 1-425): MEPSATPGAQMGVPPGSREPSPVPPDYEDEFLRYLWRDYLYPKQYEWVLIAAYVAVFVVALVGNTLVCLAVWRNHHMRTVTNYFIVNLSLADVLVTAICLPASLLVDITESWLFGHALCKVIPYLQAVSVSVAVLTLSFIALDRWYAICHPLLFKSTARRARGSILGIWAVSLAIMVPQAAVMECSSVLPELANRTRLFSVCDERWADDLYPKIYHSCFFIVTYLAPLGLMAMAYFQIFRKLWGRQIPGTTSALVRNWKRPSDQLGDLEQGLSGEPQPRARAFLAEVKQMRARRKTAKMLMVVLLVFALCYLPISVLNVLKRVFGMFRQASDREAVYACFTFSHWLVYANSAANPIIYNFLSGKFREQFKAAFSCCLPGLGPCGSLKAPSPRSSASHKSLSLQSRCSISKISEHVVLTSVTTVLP
As to the kind of experiment: In vitro test of OX1R: calcium signal change in HEK293-OX1 cells detected with FLIPR. It counts as cell-based.

Series [2] concerns the target T2, hOX2R (Homo sapiens, UniProt O43614).
T2 construct: expressed in transfected cells
T2 sequence (O43614 1-444): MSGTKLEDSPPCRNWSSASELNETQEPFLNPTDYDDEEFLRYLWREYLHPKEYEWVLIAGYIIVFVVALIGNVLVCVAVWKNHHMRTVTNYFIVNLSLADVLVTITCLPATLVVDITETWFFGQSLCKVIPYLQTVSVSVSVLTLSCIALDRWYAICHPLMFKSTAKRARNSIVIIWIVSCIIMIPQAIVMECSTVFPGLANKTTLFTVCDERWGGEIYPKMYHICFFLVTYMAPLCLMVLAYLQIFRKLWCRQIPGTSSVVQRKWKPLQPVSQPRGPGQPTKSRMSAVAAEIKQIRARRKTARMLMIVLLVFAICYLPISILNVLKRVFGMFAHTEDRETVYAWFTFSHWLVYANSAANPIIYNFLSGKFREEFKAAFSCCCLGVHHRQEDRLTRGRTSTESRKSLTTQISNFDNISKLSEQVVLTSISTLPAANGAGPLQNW
The series can be described thus: In vitro test of OX2R: calcium signal change in HEK293-OX2 cells detected with FLIPR. It counts as cell-based.

The nature of series [3]: Solubility of crystal form II in different aqueous media (37° C., 24 hours, HPLC). The class given is physicochemical. As to conditions: for Appearance: 10 mg in 1 mL.
Series [4] is described as follows: Solubility of crystal form I in different solvents (visual, room temperature). The class given is physicochemical. On the procedure:
Solubility Study of crystal form I of compound 5-3:1-1.5 mg of crystal form I of compound 5-3 was added to a flask at room temperature, a single organic solvent or a mixed solvent was added in small quantities and many times until the visual solution was clear or no solid particles were present, determined the solubility of crystal form I in different solvents, the results were shown in Table 2.

The mark [5] stands for this setting: Simulated fasting intestinal fluid.
The mark [6] stands for this setting: Simulated postprandial intestinal fluid.

The term IC50 denotes the concentration needed to halve the response being measured. For `Cc1ccc(-c2ncccn2)c(C(=O)N2C3CCC2[C@@H](COc2ccc(F)cn2)CC3)c1` (stereo partly drawn) [Compound 5-3], the half-maximal inhibitory concentration (IC50) in series [1] and in series [2] was below 50 nM in each case.

Broadly, the solubility is the dissolved amount per volume that the medium holds. With `Cc1ccc(-c2ncccn2)c(C(=O)N2C3CCC2[C@@H](COc2ccc(F)cn2)CC3)c1` (stereo partly drawn) [crystal form II], the “Crystal form of residual solid” value in series [3] (0.1N HCl), in series [3] (Simulate gastric fluid), in series [3] (setting [5]), in series [3] (setting [6]) and in series [3] (water) was “crystal form II” each time. The “Final pH” value was 0.80 in series [3] (0.1N HCl); 1.88 in series [3] (Simulate gastric fluid); 6.65 in series [3] (setting [5]); 5.04 in series [3] (setting [6]); 7.95 in series [3] (water). For the same molecule, the “Solubility (descriptive)” value in series [3] (0.1N HCl), in series [3] (Simulate gastric fluid), in series [3] (setting [5]), in series [3] (setting [6]) and in series [3] (water) was “Slightly soluble” each time. Also, the Appearance result in series [3] (0.1N HCl), in series [3] (Simulate gastric fluid), in series [3] (setting [5]), in series [3] (setting [6]) and in series [3] (water) was “turbid” throughout. In addition, the solubility at 24 h in series [3] (pH 0.8, simulated gastric fluid, thermodynamic from solid, 0.1N HCl) was 420 µg/mL (≈ 0.971 mM); in series [3] (pH 1.88, simulated gastric fluid, thermodynamic from solid, Simulate gastric fluid) it was 270 µg/mL (≈ 0.624 mM); in series [3] (pH 5.04, fessif, thermodynamic from solid, Simulated postprandial intestinal fluid), 290 µg/mL (≈ 0.671 mM); in series [3] (pH 6.65, fassif, thermodynamic from solid, Simulated fasting intestinal fluid), 180 µg/mL (≈ 0.416 mM); in series [3] (pH 7.95, thermodynamic from solid, water), 140 µg/mL (≈ 0.324 mM).

For `Cc1ccc(-c2ncccn2)c(C(=O)N2C3CCC2[C@@H](COc2ccc(F)cn2)CC3)c1` (stereo partly drawn) [crystal form I], the solubility is above 57 mg/mL in series [4] (organic solvent or mixture, thermodynamic from solid, 1,4-dioxane); 20 to 50 mg/mL (≈ 46.2 to 116 mM) in series [4] (organic solvent or mixture, thermodynamic from solid, ACN); above 52 mg/mL in series [4] (organic solvent or mixture, thermodynamic from solid, Acetone); 19 to 48 mg/mL (≈ 43.9 to 111 mM) in series [4] (organic solvent or mixture, thermodynamic from solid, EtOAc); 22 to 55 mg/mL (≈ 50.9 to 127 mM) in series [4] (organic solvent or mixture, thermodynamic from solid, EtOH); 10 to 20 mg/mL (≈ 23.1 to 46.2 mM) in series [4] (organic solvent or mixture, thermodynamic from solid, IPA). The solubility was above 54 mg/mL in series [4] (organic solvent or mixture, thermodynamic from solid, MEK); 24 to 60 mg/mL (≈ 55.5 to 139 mM) in series [4] (organic solvent or mixture, thermodynamic from solid, MIBK); below 1 mg/mL in series [4] (organic solvent or mixture, thermodynamic from solid, MTBE); above 53 mg/mL in series [4] (organic solvent or mixture, thermodynamic from solid, MeOH); 18 to 46 mg/mL (≈ 41.6 to 106 mM) in series [4] (organic solvent or mixture, thermodynamic from solid, MeOH—H2O (3:1)); above 53 mg/mL in series [4] (organic solvent or mixture, thermodynamic from solid, THF). Moreover, the solubility is above 54 mg/mL in series [4] (organic solvent or mixture, thermodynamic from solid, Toluene); 22 to 55 mg/mL (≈ 50.9 to 127 mM) in series [4] (organic solvent or mixture, thermodynamic from solid, n-butanol); below 1 mg/mL in series [4] (thermodynamic from solid, water).
